Drawing on patent publication US20060205938A1, “Monohydrate solvates of loracarbef” (priority 2002, published 2006), this text covers density and bulk density for 1 compound.

The conditions of data set [1]: fine, fluffy powder obtained by the process disclosed in EP 0,369,686; cited from earlier work.
A short description of data set [2]: Bulk density of crystalline loracarbef monohydrate. The data set is classed as physicochemical.

Turning to `N[C@@H](C(=O)N[C@@H]1C(=O)N2C(C(=O)O)=C(Cl)CC[C@H]12)c1ccccc1.O` [crystalline loracarbef monohydrate, (6R,7S)-7-[(R)-2-amino-2-phenylacetamido]-3-chloro-8-oxo-1-azabicyclo [4.2.0]oct-2-ene-carboxylic acid, monohydrate], the density result in data set [1] is given as “approximately 0.2 g/ml”. In addition, the bulk density entry in data set [2] (crystalline monohydrate prepared from mono N,N-dimethylacetamide monohydrate solvate (Example 2)) was “greater than 0.6 g/ml”; in data set [2] (crystalline monohydrate prepared from mono N-methyl pyrrolidone monohydrate solvate (Example 4)) it was “greater than 0.6 g/ml”; in data set [2] (monohydrate prepared from mono N,N-dimethylacetamide monohydrate solvate or mono N-methylpyrrolidone monohydrate solvate), ≥ 0.6 g/mL.
